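Assay format: 96-well plates, 48-hour exposure. GI50 = concentration required for 50% inhibition of growth.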 Calls of active or inactive are those of the source. Rule as the data show it: active = GI50 up to about 1.1 µM and inactive = higher.
What was measured:
Experiment in all cases: DTP human tumour cell line panel, 48 h
CCRF-CEM = system: CCRF-CEM
Malme-3M = system: Malme-3M
HCT-15 = system: HCT-15
NCI-H23 = system: NCI-H23
NCI-H460 = system: NCI-H460
SNB-75 = system: SNB-75
IGROV-1 = system: IGROV-1
SN12C = system: SN12C
SF-295 = system: SF-295
SK-OV-3 = system: SK-OV-3
EKVX = system: EKVX
T47D = system: T47D
SK-MEL-5 = system: SK-MEL-5
786-0 = system: 786-0
DU-145 = system: DU-145
SW-620 = system: SW-620
MCF7 = system: MCF7
HL-60 = system: HL-60
SK-MEL-2 = system: SK-MEL-2
MDA-MB-231 = system: MDA-MB-231

Structure (SMILES) | GI50 (CCRF-CEM) | GI50 (Malme-3M) | GI50 (HCT-15) | GI50 (NCI-H23) | GI50 (NCI-H460) | GI50 (SNB-75) | GI50 (IGROV-1) | GI50 (SN12C) | GI50 (SF-295) | GI50 (SK-OV-3) | GI50 (EKVX) | GI50 (T47D) | GI50 (SK-MEL-5) | GI50 (786-0) | GI50 (DU-145) | GI50 (SW-620) | GI50 (MCF7) | GI50 (HL-60) | GI50 (SK-MEL-2) | GI50 (MDA-MB-231)
CC(=O)O[C@@H]1C[C@@]23C[C@@]24CC[C@H](OC2OCC(O)C(O)C2O)C(C)(C)[C@@H]4CC=C3[C@]2(C)C[C@@H]3OC4(C[C@@H](C)[C@@H]3[C@@]12C)OC(O)[C@@]1(C)O[C@@H]41 (stereo not given in full) | 11.7 µM (inactive) | 33.2 µM (inactive) | 31.6 µM | 34 µM (inactive) | 25.3 µM (inactive) | 25 µM (inactive) | 36.5 µM (inactive) | 31.5 µM (inactive) | 25.7 µM (inactive) | 30.4 µM (inactive) | 33.4 µM (inactive) | 20.8 µM (inactive) | 19.7 µM (inactive) | 25.2 µM (inactive) | 43.2 µM (inactive) | 36.5 µM (inactive) | 30.8 µM (inactive) | 7.73 µM (inactive) | 19.7 µM (inactive) | 21.1 µM (inactive)
C=C1CC(CNc2cc(Cl)nc(N)n2)C1 | > 100 µM (inactive) | > 100 µM (inactive) | 67.8 µM | > 100 µM (inactive) | > 100 µM (inactive) | > 100 µM (inactive) | > 100 µM (inactive) | > 100 µM (inactive) | > 100 µM (inactive) | 44.9 µM (inactive) | 23.1 µM (inactive) | > 10 µM (inactive) | 50.5 µM (inactive) | > 100 µM (inactive) | > 100 µM (inactive) | > 100 µM (inactive) | > 100 µM (inactive) | > 100 µM (inactive) | > 100 µM (inactive) | > 100 µM (inactive)
O=c1oc2ccccc2c(-c2ccc(O)cc2)c1Oc1ccccc1 | 25.4 µM (inactive) | 2.58 µM (inactive) | 7.83 µM | 6.32 µM (inactive) | 6.85 µM (inactive) | > 46.8 µM (inactive) | 6.44 µM (inactive) | 21.5 µM (inactive) | 22 µM (inactive) | 34.8 µM (inactive) | 15.7 µM (inactive) | > 100 µM (inactive) | 14.1 µM (inactive) | 23.1 µM (inactive) | 4.25 µM (inactive) | 37.8 µM (inactive) | 11.2 µM (inactive) | 54 µM (inactive) | 7.1 µM (inactive) | 3.17 µM (inactive)
O=C(NC(C(F)(F)F)(C(F)(F)F)P(=O)(c1ccccc1)c1ccccc1)C(C(F)(F)F)C(F)(F)F | 41.8 µM (inactive) | 14.2 µM (inactive) | 30 µM | 21.7 µM (inactive) | 42.3 µM (inactive) | 20.8 µM (inactive) | 25.7 µM (inactive) | 27.9 µM (inactive) | 48.4 µM (inactive) | > 100 µM (inactive) | > 100 µM (inactive) | > 100 µM (inactive) | 17.8 µM (inactive) | 18.9 µM (inactive) | > 100 µM (inactive) | 40.6 µM (inactive) | 26.2 µM (inactive) | 26.5 µM (inactive) | 40.6 µM (inactive) | 24.2 µM (inactive)
C=CCOC(=O)[C@@H]1C[C@@H](OC(C)(C)C)CN1C(=O)[C@@H]1[C@H]2OC(C)(C)O[C@H]2CN1C(=O)OCC1c2ccccc2-c2ccccc21 | 16.6 µM (inactive) | 18.2 µM (inactive) | 11.4 µM | 17.6 µM (inactive) | 10.5 µM (inactive) | 17.5 µM (inactive) | 17 µM (inactive) | 17 µM (inactive) | 17.9 µM (inactive) | 17.2 µM (inactive) | 5.05 µM (inactive) | 19.4 µM (inactive) | 18.9 µM (inactive) | 5.46 µM (inactive) | 3.45 µM (inactive) | 20.9 µM (inactive) | 48.4 µM (inactive) | 11 µM (inactive) | 32.2 µM (inactive) | 17.9 µM (inactive)
CCOCc1nc2c(OC)c(-c3nc4ccc(N5CCN(C)CC5)cc4[nH]3)cc(OC)c2[nH]1 | 12.7 µM (inactive) | 18 µM (inactive) | 44.2 µM | 37.8 µM (inactive) | 26.4 µM (inactive) | 28.9 µM (inactive) | 91.6 µM (inactive) | 74.3 µM (inactive) | 21 µM (inactive) | 71.4 µM (inactive) | > 100 µM (inactive) | > 100 µM (inactive) | 17.5 µM (inactive) | 31 µM (inactive) | 68.5 µM (inactive) | 34.7 µM (inactive) | 47.6 µM (inactive) | 4.39 µM (inactive) | 20.6 µM (inactive) | 28.2 µM (inactive)
CCN(CC)CC(=O)O[C@]1(CC)C(=O)OCc2c1cc1n(c2=O)Cc2cc3ccccc3nc2-1 | < 0.01 µM (active) | 0.219 µM (active) | 0.17 µM | < 0.016 µM (active) | < 0.01 µM (active) | 0.0266 µM (active) | 0.11 µM (active) | 0.0204 µM (active) | 0.0102 µM (active) | 0.0826 µM (active) | 0.256 µM (active) | < 0.01 µM (active) | 0.0313 µM (active) | < 0.0107 µM (active) | < 0.01 µM (active) | 0.0946 µM (active) | < 0.01 µM (active) | 0.0171 µM (active) | 0.382 µM (active) | 3.37 µM (inactive)
O=C1OC(OC/C(Br)=C(/Br)COC2OC(=O)C(Cl)=C2Cl)C(Cl)=C1Cl (stereo not given) | 1.71 µM (inactive) | 7.57 µM (inactive) | 9.29 µM | 4.21 µM (inactive) | 19.6 µM (inactive) | 18.7 µM (inactive) | 13.7 µM (inactive) | 9.1 µM (inactive) | 16.1 µM (inactive) | 26.9 µM (inactive) | 16.1 µM (inactive) | 9.95 µM (inactive) | 13.4 µM (inactive) | 5.82 µM (inactive) | 16.1 µM (inactive) | 2.69 µM (inactive) | 12.9 µM (inactive) | 1.71 µM (inactive) | 26.2 µM (inactive) | 7.69 µM (inactive)
O=c1[nH]/c(=C/c2ccc(OCc3ccccc3)cn2)c(=O)[nH]/c1=C/c1cccnc1 | 0.537 µM (active) | 0.25 µM (active) | 0.254 µM | 0.423 µM (active) | 0.41 µM (active) | 0.452 µM (active) | 0.908 µM (active) | 0.417 µM (active) | 0.284 µM (active) | 0.703 µM (active) | 1.65 µM (inactive) | 0.458 µM (active) | 0.226 µM (active) | 0.474 µM (active) | 0.585 µM (active) | 0.42 µM (active) | 0.378 µM (active) | 0.117 µM (active) | 0.38 µM (active) | 1.92 µM (inactive)
COC(=O)[C@]1(c2cc3ccccc3n2S(=O)(=O)c2ccccc2)CC2CN(C(C)=O)C1CC2=O (stereo not given in full) | 0.637 µM (active) | 2.77 µM (inactive) | 2.48 µM | 3.1 µM (inactive) | 3.14 µM (inactive) | 3.15 µM (inactive) | 2.57 µM (inactive) | 2.68 µM (inactive) | 12.6 µM (inactive) | 8.13 µM (inactive) | 2.02 µM (inactive) | 2.16 µM (inactive) | 3.27 µM (inactive) | 1.28 µM (inactive) | 3.46 µM (inactive) | 1.94 µM (inactive) | 1.69 µM (inactive) | 1.34 µM (inactive) | 2.77 µM (inactive) | 2.58 µM (inactive)
COC(=O)Nc1nc2cc(S(=O)(=O)Nc3ccccn3)ccc2[nH]1 | 26.1 µM (inactive) | 58.5 µM (inactive) | 19.8 µM | 50.1 µM (inactive) | 34.6 µM (inactive) | 22.6 µM (inactive) | 27.9 µM (inactive) | 92 µM (inactive) | 49.7 µM (inactive) | 44.5 µM (inactive) | > 100 µM (inactive) | 44.2 µM (inactive) | 42.1 µM (inactive) | 49.8 µM (inactive) | 71.1 µM (inactive) | 17.1 µM (inactive) | 28.6 µM (inactive) | 10.8 µM (inactive) | > 100 µM (inactive) | > 100 µM (inactive)
N=C(N)NS(=O)(=O)c1ccc(NNc2c3ccccc3nc3ccccc23)cc1 | 1.23 µM (inactive) | 17.3 µM (inactive) | 18.6 µM | 9.29 µM (inactive) | 2.7 µM (inactive) | 16.5 µM (inactive) | 15.2 µM (inactive) | 4.23 µM (inactive) | 13.8 µM (inactive) | 11.1 µM (inactive) | 10.6 µM (inactive) | 5.73 µM (inactive) | 9.31 µM (inactive) | 10.1 µM (inactive) | 2.58 µM (inactive) | 9.31 µM (inactive) | 2.48 µM (inactive) | 4.49 µM (inactive) | 18.2 µM (inactive) | 15.7 µM (inactive)
N#Cc1cc([N+](=O)[O-])ccc1NC(=O)/C(=N\NC(=O)c1ccncc1)C(c1cnc2ccc([N+](=O)[O-])cc2n1)[N+](=O)[O-] (stereo not given) | 3.38 µM (inactive) | 1.31 µM (inactive) | 2.03 µM | 0.91 µM (active) | 2.13 µM (inactive) | 1.99 µM (inactive) | 3.78 µM (inactive) | 1.85 µM (inactive) | 1.78 µM (inactive) | 8.02 µM (inactive) | 9.31 µM (inactive) | 3.37 µM (inactive) | 0.869 µM (active) | 2.44 µM (inactive) | 5.64 µM (inactive) | 2.4 µM (inactive) | 1.55 µM (inactive) | 3.51 µM (inactive) | 1.75 µM (inactive) | 1.99 µM (inactive)
CC1=NN(c2ccc(S(=O)(=O)O)cc2)C2(C1)C(Cl)C(=O)N2c1nc2ccccc2s1 (stereo not given) | > 100 µM (inactive) | > 100 µM (inactive) | > 100 µM | > 100 µM (inactive) | > 100 µM (inactive) | > 100 µM (inactive) | > 100 µM (inactive) | > 100 µM (inactive) | > 100 µM (inactive) | > 100 µM (inactive) | 55.7 µM (inactive) | 59.8 µM (inactive) | > 100 µM (inactive) | > 100 µM (inactive) | > 100 µM (inactive) | > 100 µM (inactive) | > 100 µM (inactive) | > 100 µM (inactive) | 92.5 µM (inactive) | > 100 µM (inactive)

From ChEMBL document CHEMBL1201862, “PubChem BioAssay data set” (2004)
